Measurements from US20240197738A1, “COMPOUND 7AI IN TREATING EWING SARCOMA BY INHIBITING OTUD7A” (The University of North Carolina at Chapel Hill, priority 2021, published 2024).

Assays:
A673^3A cells = test: Cell viability (MTT) assay, A673^3A knockin; type: cell-based, human; details: 3-day treatment (FIG. 5I)
Experimental: Parental A673 cells were splitted into 24-well plates and transfected with sgRNA against EWS-FLI1 together with EWS-FLI1-3A-ssoDNA following protocols as described. 1-day post-transfection, cells were selected with 1 μg/ml puromycin for 3 days. Surviving cells were counted and each single cell was seeded into 96-well plates. Each single clone grown up in 96-well plates was amplified and one copy was used for genomic DNA extraction, followed by PCR and BpmI digestion to screen for potential knockin clones. BpmI negative clones are selected and sequenced to verify the knockin at the DNA level. 3 isogenic knockin clones were selected and saved.
(§1) 2,000 indicated cells were seeded in each well of 96-well plates for MTT assays to monitor cell viability at indicated time periods using a method adapted from https://www.thermofisher.com/us/en/home/references/protocols/cell-culture/mtt-assay-protocol/vybrant-mtt-cell-proliferation-assay-kit.html. Briefly, at indicated time points post-cell seeding, 10 μL MTT solution was added into each well and incubated in the culture incubator (37° C. with 5% CO2) for 4 hrs. Then medium was removed and 100 μL DMSO was added into each well to dissolve the formazan crystal and incubated for 10 min at 37° C. After thorough mixing, absorbance at 540 nm was measured using the BioTek Cytation 5 Cell Imaging reader.

[1] = tested on: A673 cells expressing EWS-FLI1-3A; test: Growth of A673 cells expressing EWS-FLI1-3A; type: cell-based, human
Experimental: as §1

[2] = biological target: OTUD7A binding to EWS-FLI1 (Homo sapiens, UniProt Q8TE49); test: OTUD7A binding to EWS-FLI1 in cells; type: cell-based
Experimental: (§2) Cells were lysed in EBC buffer (50 mM Tris pH 7.5, 120 mM NaCl, 0.5% NP-40) or Triton X-100 buffer (50 mM Tris pH 7.5, 150 mM NaCl, 1% Triton X-100) supplemented with protease inhibitors (Complete Mini, Roche) and phosphatase inhibitors (phosphatase inhibitor cocktail set I and II, Calbiochem). The protein concentrations of whole cell lysates were measured by NanoDrop OneC using the Bio-Rad protein assay reagent as described previously. Equal amounts of whole cell lysates were resolved by SDS-PAGE and immunoblotted with indicated antibodies. For immunoprecipitations analysis, unless specified, 1000 μg lysates were incubated with the indicated antibody (1-2 μg) for 3-4 hr at 4° C. followed by 1 hr incubation with 10 μL Protein A magnetic beads (New England Biolabs). Or 1000 μg lysates containing tagged molecules were incubated with agarose beads coupled antibodies for the specific tag for 3-4 hr at 4° C. For endogenous IPs, incubation of cell lysates with antibodies was extended to overnight. The recovered immuno-complexes were washed five times with NETN buffer (20 mM Tris, pH 8.0, 100 mM NaCl, 1 mM EDTA and 0.5% NP-40) before being resolved by SDS-PAGE and immunoblotted with indicated antibodies.

[3] = tested on: foreskin fibroblast (FF) cells; test: Cell viability (MTT) assay, foreskin fibroblast; type: cell-based, human; details: 72 hrs (FIG. 5S)
Experimental: as §1

EWS-FLI1 mRNA = test: RT-PCR of EWS-FLI1 mRNA levels; type: cell-based, human; details: 7Ai treatment
Experimental: Cells were isolated by dissociation with 0.05% Trypsin, followed by media quenching. The cells were spun down at 300×rcf for 5 minutes. The media was aspirated, the pellet was suspended with 1×PBS, and then the cells were spun down again. The PBS was aspirated. RNA extraction was performed with an RNA extraction kit (BioBasic BS584). The final elution step was done with 50 μL of RNAse-free water. The […] with the NanoDrop OneC (Thermo Fisher Scientific). Three biological replicates were performed for RNA extraction. Quartile analysis was done to exclude outliers and significance was determined by one-way ANOVA tests.

A673 cells [4] = test: Transwell migration assay, A673; type: cell-based, human; details: A673 cells in vitro
Experimental: 1×10^5 cells were plated in an […], 24-well plate chamber insert (Corning Life Sciences, catalog no. 3422) with serum free DMEM medium at the top of the insert and the same medium containing 20% fetal bovine serum (FBS) at the bottom of the insert. Cells were incubated for 24 hr and fixed with 4% paraformaldehyde for 15 min. After washing with PBS, cells at the top of the insert were scraped with a cotton swab. Cells adherent to the bottom were stained with 0.5% crystal violet blue for 60 min and then washed with double-distilled H2O (ddH2O). The positively stained cells were examined under the microscope.

MHH-ES-1 cells = test: 2D colony formation assay, MHH-ES-1; type: cell-based, human; details: MHH-ES-1, 2-week treatment (FIG. 5J)
Experimental: Indicated cells were seeded into 6-well plates (300 or 600 cells/well) or 6 cm dishes (500 or 1,000 cells/dish) and cultured in 37° C. incubator with 5% C02 for ˜14 days (as indicated in figure legends) until formation of visible colonies. Colonies were washed with 1×PBS and fixed with 10% acetic acid/10% methanol for 30 min, stained with 20% acidic acid/10% Methanol with 0.1% crystal violet until colonies were visibly stained. Colonies were then washed by tap water and air-dried. Colony numbers were manually counted. At least two independent experiments were performed to generate the error bars.

EWS-ERG = test: Immunoblot of EWS-ERG protein levels; type: cell-based, human; details: A673 cells with EWS-ERG replacing EWS-FLI1
Experimental: as §2

Ewing sarcoma cell = Ewing sarcoma cell growth in vitro (effective dose); type: cell-based, human
Experimental: as §1

A673 cells [5] = test: Cell viability (MTT) assay, A673; type: cell-based, human; details: A673, 3-day treatment
Experimental: as §1

OTUD7A binding to EWS-FLI1, sequence (Q8TE49 whole entry): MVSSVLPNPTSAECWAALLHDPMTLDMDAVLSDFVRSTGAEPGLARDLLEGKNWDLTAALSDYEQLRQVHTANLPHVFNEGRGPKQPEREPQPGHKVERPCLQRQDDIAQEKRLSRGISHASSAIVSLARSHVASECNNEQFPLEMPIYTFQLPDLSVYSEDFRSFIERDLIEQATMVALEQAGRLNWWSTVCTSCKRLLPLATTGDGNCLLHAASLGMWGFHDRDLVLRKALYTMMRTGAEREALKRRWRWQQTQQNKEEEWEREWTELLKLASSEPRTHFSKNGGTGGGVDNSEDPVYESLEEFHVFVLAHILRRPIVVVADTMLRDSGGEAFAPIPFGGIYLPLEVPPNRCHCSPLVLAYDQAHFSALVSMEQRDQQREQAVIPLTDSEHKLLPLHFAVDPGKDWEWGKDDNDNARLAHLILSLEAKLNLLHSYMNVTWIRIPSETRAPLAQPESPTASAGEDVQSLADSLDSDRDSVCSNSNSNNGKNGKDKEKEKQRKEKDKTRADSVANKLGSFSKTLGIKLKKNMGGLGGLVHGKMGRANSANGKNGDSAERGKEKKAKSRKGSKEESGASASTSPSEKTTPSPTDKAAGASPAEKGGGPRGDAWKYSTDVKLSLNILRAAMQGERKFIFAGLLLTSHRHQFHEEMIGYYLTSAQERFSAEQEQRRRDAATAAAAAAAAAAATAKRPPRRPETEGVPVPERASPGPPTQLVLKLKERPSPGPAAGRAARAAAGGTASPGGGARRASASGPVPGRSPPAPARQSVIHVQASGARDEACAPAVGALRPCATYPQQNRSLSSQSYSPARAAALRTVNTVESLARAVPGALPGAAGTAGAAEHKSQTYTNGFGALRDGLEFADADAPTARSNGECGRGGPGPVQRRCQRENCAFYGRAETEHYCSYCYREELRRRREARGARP

For Cn1nccc1-c1cc(-c2ccnn2C)n2nc(C(=O)Nc3cnn(Cc4c(Cl)cccc4Cl)c3)cc2n1 [7Ai], the “proliferation (cell viability)” value (A673^3A cells) was “not observed”, the cell growth [1] was “failed to significantly suppress growth” and the “OTUD7A binding to EWS-FLI1” value [2] was “did not interfere with OTUD7A binding to EWS-FLI1”. For the same compound, the “proliferation (cell viability)” value [3] was “neglectable effects”, the “EWS-FLI1 mRNA levels” value (EWS-FLI1 mRNA) was “did not affected EWS-FLI1 mRNA levels” and the cell migratory ability (A673 cells [4]) was “significantly reduced A673 cell migratory ability”. For the same compound, the colony formation ability (MHH-ES-1 cells) was “reduced colony formation ability”, the EWS-ERG protein levels (EWS-ERG) was “reduced EWS-ERG protein levels” and the “effective dose in retarding Ewing sarcoma cell growth in vitro” value (Ewing sarcoma cell) was “about 10 μM”. For the same compound, the “proliferation (cell viability)” value (A673 cells [5]) was “reduced proliferation”.
